Data from patent publication US20240083861A1, “HSD17B13 INHIBITORS AND USES THEREOF” (FL2022-001, Inc., priority 2020, published 2024).

Each molecule was assayed against T1, Recombinant human HSD17B13 enzyme (Homo sapiens, UniProt Q7Z5P4) (assay: HSD17b13 NAD(P)H-Glo biochemical assay). Conditions: 50 uM estradiol, 1 mM NAD+, NAD(P)H-Glo luminescence; read-out: HSD17β13 IC50.
T1 sequence (Q7Z5P4 20-300): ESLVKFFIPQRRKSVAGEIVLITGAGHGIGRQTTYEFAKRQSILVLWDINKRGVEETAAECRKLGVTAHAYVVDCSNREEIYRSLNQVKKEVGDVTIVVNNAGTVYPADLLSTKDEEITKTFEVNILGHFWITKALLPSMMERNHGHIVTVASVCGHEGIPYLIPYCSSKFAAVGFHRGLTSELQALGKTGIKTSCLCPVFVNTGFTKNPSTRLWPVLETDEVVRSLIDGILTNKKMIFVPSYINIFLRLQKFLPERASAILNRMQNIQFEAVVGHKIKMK
Method in brief: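 Luminescent NAD(P)H-Glo read-out, taken after 1 hour at RT, measured cofactor reduction. Substrate and cofactor were estradiol at 50 uM and NAD+ at 1 mM final, reacted with the recombinant human enzyme for 3 hours at 37° C in 20 mM Tris pH7.4, 0.002% Tween-20, 0.02% BSA. Compound was pre-incubated with enzyme for 20 minutes at RT.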

IC50, < 100 nM:
Cn1nc(-c2cc(C(F)(F)F)c(F)c(O)c2F)c2cnc(N3CCS(=O)(=O)CC3C3CC3)cc21 (centres unmarked) [Compound 9.126, 3-Cyclopropyl-4-(3-(2,4-difluoro-3-hydroxy-5-(trifluoromethyl)phenyl)-1-methyl-1H-pyrazolo[4,3-c]pyridin-6-yl)thiomorpholine 1,1-dioxide]
CN1CCN(c2cc3c(cn2)c(-c2cc(C(F)(F)F)c(F)c(O)c2F)nn3C)C(C2CCOCC2)C1 (centres unmarked) [Compound 9.128, 2,6-Difluoro-3-(1-methyl-6-(4-methyl-2-(tetrahydro-2H-pyran-4-yl)piperazin-1-yl)-1H-pyrazolo[4,3-c]pyridin-3-yl)-5-(trifluoromethyl)phenol]
Cn1nc(-c2cc(C(F)(F)F)c(F)c(O)c2F)c2cnc(N(C3CCOCC3)C3CC3)cc21 [Compound 9.129, 3-(6-(Cyclopropyl(tetrahydro-2H-pyran-4-yl)amino)-1-methyl-1H-pyrazolo[4,3-c]pyridin-3-yl)-2,6-difluoro-5-(trifluoromethyl)phenol]
Cn1nc(-c2cc(C(F)(F)F)c(F)c(O)c2F)c2cnc(N(Cc3cccnc3)C3CCOCC3)cc21 [Compound 9.131, 2,6-Difluoro-3-(1-methyl-6-((pyridin-3-ylmethyl)(tetrahydro-2H-pyran-4-yl)amino)-1H-pyrazolo[4,3-c]pyridin-3-yl)-5-(trifluoromethyl)phenol]
Cn1nc(-c2cc(C(F)(F)F)c(F)c(O)c2F)c2cnc(N3CCOC4(CCCC4)C3)cc21 [Compound 9.132, 2,6-Difluoro-3-(1-methyl-6-(6-oxa-9-azaspiro[4.5]decan-9-yl)-1H-pyrazolo[4,3-c]pyridin-3-yl)-5-(trifluoromethyl)phenol]
Cn1nc(-c2cc(C(F)(F)F)c(F)c(O)c2F)c2cnc(N3CCOC(C4CCOCC4)C3)cc21 (centres unmarked) [Compound 9.133, 2,6-Difluoro-3-(1-methyl-6-(2-(tetrahydro-2H-pyran-4-yl)morpholino)-1H-pyrazolo[4,3-c]pyridin-3-yl)-5-(trifluoromethyl)phenol]
Cn1nc(-c2cc(C(F)(F)F)c(F)c(O)c2F)c2cnc(N3CCN(S(C)(=O)=O)C4(CCC4)C3)cc21 [Compound 9.134, 2,6-Difluoro-3-(1-methyl-6-(5-(methylsulfonyl)-5,8-diazaspiro[3.5]nonan-8-yl)-1H-pyrazolo[4,3-c]pyridin-3-yl)-5-(trifluoromethyl)phenol]
Cn1nc(-c2cc(C(F)(F)F)c(F)c(O)c2F)c2cnc(N3CCO[C@@H](c4ccccc4)C3)cc21 [Compound 9.135, (S)-2,6-Difluoro-3-(1-methyl-6-(2-phenylmorpholino)-1H-pyrazolo[4,3-c]pyridin-3-yl)-5-(trifluoromethyl)phenol]
CN(c1ncc2c(-c3cc(C(F)(F)F)c(F)c(O)c3F)nn(C)c2c1F)C1CCOCC1 [Compound 9.136, 2,6-Difluoro-3-(7-fluoro-1-methyl-6-(methyl(tetrahydro-2H-pyran-4-yl)amino)-1H-pyrazolo[4,3-c]pyridin-3-yl)-5-(trifluoromethyl)phenol]
Cn1nc(-c2cc(C(F)(F)F)c(F)c(O)c2F)c2nnc(N3CCOCC34CC4)cc21 [Compound 9.138, 2,6-Difluoro-3-(1-methyl-6-(7-oxa-4-azaspiro[2.5]octan-4-yl)-1H-pyrazolo[4,3-c]pyridazin-3-yl)-5-(trifluoromethyl)phenol]
CC1(C#N)CN(c2ncc3c(-c4cc(O)c(F)c(C(F)(F)F)c4)n[nH]c3n2)C1 [Compound 10.02, 1-(3-(4-Fluoro-3-hydroxy-5-(trifluoromethyl)phenyl)-1H-pyrazolo[3,4-d]pyrimidin-6-yl)-3-methylazetidine-3-carbonitrile]
CS(=O)(=O)N1CCN(c2cnc3c(-c4cc(O)c(F)c(C(F)(F)F)c4)nn(C4CCCCO4)c3n2)CC1 (centres unmarked) [Compound 10.05, 2-Fluoro-5-(6-(4-(methylsulfonyl)piperazin-1-yl)-1-(tetrahydro-2H-pyran-2-yl)-1H-pyrazolo[3,4-b]pyrazin-3-yl)-3-(trifluoromethyl)phenol]
Oc1c(F)c(-c2n[nH]c3cc(N4CCOCC45CC5)ncc23)cc(C(F)(F)F)c1F [Compound 11.03, 3-(6-(7-Oxa-4-azaspiro[2.5]octan-4-yl)-1H-pyrazolo[4,3-c]pyridin-3-yl)-2,6-difluoro-5-(trifluoromethyl)phenol]
CN(c1cc2[nH]nc(-c3cc(C(F)(F)F)c(F)c(O)c3F)c2cn1)C1CCOCC1 [Compound 11.04, 2,6-Difluoro-3-(6-(methyl(tetrahydro-2H-pyran-4-yl)amino)-1H-pyrazolo[4,3-c]pyridin-3-yl)-5-(trifluoromethyl)phenol]

IC50, 1000 to 30000 nM:
CS(=O)(=O)N1CCN(c2ccc3c(-c4cc(C(F)(F)F)cc(O)c4F)n[nH]c3c2)CC1 [Compound 11, 2-Fluoro-3-(6-(4-(methylsulfonyl)piperazin-1-yl)-1H-indazol-3-yl)-5-(trifluoromethyl)phenol]

IC50, 100 to 1000 nM:
Cn1nc(-c2cc(C(F)(F)F)c(F)c(O)c2F)c2cnc(N3CCS(=O)(=O)CC3(C)C)cc21 [Compound 9.125, 4-(3-(2,4-Difluoro-3-hydroxy-5-(trifluoromethyl)phenyl)-1-methyl-1H-pyrazolo[4,3-c]pyridin-6-yl)-3,3-dimethylthiomorpholine 1,1-dioxide]
CN(c1cc(Cl)c2c(-c3cc(C(F)(F)F)c(F)c(O)c3F)nn(C)c2c1)C1CCOCC1 [Compound 9.127, 3-(4-Chloro-1-methyl-6-(methyl(tetrahydro-2H-pyran-4-yl)amino)-1H-indazol-3-yl)-2,6-difluoro-5-(trifluoromethyl)phenol]
Cc1c(N(C)C2CCOCC2)ncc2c(-c3cc(C(F)(F)F)c(F)c(O)c3F)nn(C)c12 [Compound 9.130, 3-(1,7-Dimethyl-6-(methyl(tetrahydro-2H-pyran-4-yl)amino)-1H-pyrazolo[4,3-c]pyridin-3-yl)-2,6-difluoro-5-(trifluoromethyl)phenol]
Cc1cc(N(C)C2CCOCC2)cc2c1c(-c1cc(C(F)(F)F)c(F)c(O)c1F)nn2C [Compound 9.137, 3-(1,4-Dimethyl-6-(methyl(tetrahydro-2H-pyran-4-yl)amino)-1H-indazol-3-yl)-2,6-difluoro-5-(trifluoromethyl)phenol]
CS(=O)(=O)N1CCN(c2ncc3c(-c4cc(O)c(F)c(C(F)(F)F)c4)n[nH]c3n2)CC1 [Compound 10, 2-Fluoro-5-(6-(4-(methylsulfonyl)piperazin-1-yl)-1H-pyrazolo[3,4-d]pyrimidin-3-yl)-3-(trifluoromethyl)phenol]
Oc1cc(-c2n[nH]c3nc(N4CC5(CCOCC5)C4)ncc23)cc(C(F)(F)F)c1F [Compound 10.01, 5-(6-(7-Oxa-2-azaspiro[3.5]nonan-2-yl)-1H-pyrazolo[3,4-d]pyrimidin-3-yl)-2-fluoro-3-(trifluoromethyl)phenol]
CS(=O)(=O)N1CCN(c2ccc3c(-c4cc(O)c(F)c(C(F)(F)F)c4)n[nH]c3n2)CC1 [Compound 10.03, 2-Fluoro-5-(6-(4-(methylsulfonyl)piperazin-1-yl)-1H-pyrazolo[3,4-b]pyridin-3-yl)-3-(trifluoromethyl)phenol]
CS(=O)(=O)N1CCN(c2cnc3c(-c4cc(O)c(F)c(C(F)(F)F)c4)n[nH]c3n2)CC1 [Compound 10.04, 2-Fluoro-5-(6-(4-(methylsulfonyl)piperazin-1-yl)-1H-pyrazolo[3,4-b]pyrazin-3-yl)-3-(trifluoromethyl)phenol]
Oc1cc(-c2n[nH]c3nc(N4CC5(CCOCC5)C4)cnc23)cc(C(F)(F)F)c1F [Compound 10.06, 5-(6-(7-Oxa-2-azaspiro[3.5]nonan-2-yl)-1H-pyrazolo[3,4-b]pyrazin-3-yl)-2-fluoro-3-(trifluoromethyl)phenol]
CS(=O)(=O)N1CCN(c2cc3[nH]nc(-c4cc(C(F)(F)F)cc(O)c4F)c3cn2)CC1 [Compound 11.02, 2-Fluoro-3-(6-(4-(methylsulfonyl)piperazin-1-yl)-1H-pyrazolo[4,3-c]pyridin-3-yl)-5-(trifluoromethyl)phenol]

Same assay, conditions: at 10 uM compound; read-out: HSD17β13 % inhibition at 10 uM

Inhibition at 10 µM, 25%:
Cn1nc(-c2cc(C(F)(F)F)c(F)c(O)c2F)c2ccc(NC3COC3)nc21 [Compound 9.139, 2,6-Difluoro-3-(1-methyl-6-(oxetan-3-ylamino)-1H-pyrazolo[3,4-b]pyridin-3-yl)-5-(trifluoromethyl)phenol]

Inhibition at 10 µM, 20%:
CN(c1cc2c(nn1)c(-c1cc(C(F)(F)F)c(F)c(O)c1O)nn2C)C1CCOCC1 [Compound 9.141, 3-Fluoro-6-(1-methyl-6-(methyl(tetrahydro-2H-pyran-4-yl)amino)-1H-pyrazolo[4,3-c]pyridazin-3-yl)-4-(trifluoromethyl)benzene-1,2-diol]

Inhibition at 10 µM, 35%:
Cn1nc(-c2cc(C(F)(F)F)c(F)c(O)c2F)c2cnc(N3CCCC34COC4)cc21 [Compound 9.140, 2,6-Difluoro-3-(1-methyl-6-(2-oxa-5-azaspiro[3.4]octan-5-yl)-1H-pyrazolo[4,3-c]pyridin-3-yl)-5-(trifluoromethyl)phenol]

Same assay, conditions: at 30 uM compound; read-out: HSD17β13 % inhibition at 30 uM

Inhibition at 30 µM, 41%:
CS(=O)(=O)N1CCN(c2ccc3c(-c4ccc(F)c(O)c4F)n[nH]c3c2)CC1 [Compound 11.01, 2,6-Difluoro-3-(6-(4-(methylsulfonyl)piperazin-1-yl)-1H-indazol-3-yl)phenol]
